{"source": "patent US20170217976A1", "about": "“6-(AMINO ACID)-MORPHINAN DERIVATIVES IN COMBINATION WITH PERMEATION […] FOR USE AS AN ORALLY, […], TRA[…] NASALLY AD[…]” (C[…], priority 2014, published 2017)", "key": {"human MOR": {"target": "T1, human MOR (Homo sapiens, UniProt P35372)", "T1 construct": "expressed in transfected cells; host or cells: CHO cells", "T1 sequence (P35372 whole entry)": "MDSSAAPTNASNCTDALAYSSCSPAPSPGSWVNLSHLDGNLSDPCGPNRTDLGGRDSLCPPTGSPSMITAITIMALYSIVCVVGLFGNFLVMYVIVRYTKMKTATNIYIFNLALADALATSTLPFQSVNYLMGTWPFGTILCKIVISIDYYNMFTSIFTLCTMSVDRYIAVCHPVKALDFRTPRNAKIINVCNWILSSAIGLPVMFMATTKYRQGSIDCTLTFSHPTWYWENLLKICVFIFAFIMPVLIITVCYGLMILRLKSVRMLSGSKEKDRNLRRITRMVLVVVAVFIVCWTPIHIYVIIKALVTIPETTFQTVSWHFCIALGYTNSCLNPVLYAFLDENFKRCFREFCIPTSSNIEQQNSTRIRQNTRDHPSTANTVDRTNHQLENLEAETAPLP", "assay": "biochemical", "type": "biochemical", "conditions": "for Emax: read-out: [35S]GTPγS binding, MOR % stim.", "protocol": "A number of compounds were evaluated for agonist potency and efficacy at the MOR using the [^35S]GTPγS functional assay in CHO cells expressing human MOR receptors."}, "MOR": {"target": "T2, MOR (Rattus norvegicus, UniProt P33535)", "T2 construct": "from tissue", "T2 sequence (P33535 whole entry)": "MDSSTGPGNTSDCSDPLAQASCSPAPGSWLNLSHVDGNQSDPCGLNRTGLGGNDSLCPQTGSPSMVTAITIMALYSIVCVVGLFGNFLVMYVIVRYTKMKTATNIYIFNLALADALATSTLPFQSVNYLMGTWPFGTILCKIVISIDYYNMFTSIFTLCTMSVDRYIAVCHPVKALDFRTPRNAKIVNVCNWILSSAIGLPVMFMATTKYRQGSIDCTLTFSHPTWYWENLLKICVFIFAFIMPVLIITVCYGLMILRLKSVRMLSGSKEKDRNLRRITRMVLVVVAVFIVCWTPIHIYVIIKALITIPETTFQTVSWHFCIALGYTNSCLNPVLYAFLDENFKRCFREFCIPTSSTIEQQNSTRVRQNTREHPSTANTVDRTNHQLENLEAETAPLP", "assay": "Opioid receptor binding, MOR, rat brain membranes"}, "DOR": {"target": "T3, DOR (Rattus norvegicus, UniProt P33533)", "T3 construct": "from tissue", "T3 sequence (P33533 whole entry)": "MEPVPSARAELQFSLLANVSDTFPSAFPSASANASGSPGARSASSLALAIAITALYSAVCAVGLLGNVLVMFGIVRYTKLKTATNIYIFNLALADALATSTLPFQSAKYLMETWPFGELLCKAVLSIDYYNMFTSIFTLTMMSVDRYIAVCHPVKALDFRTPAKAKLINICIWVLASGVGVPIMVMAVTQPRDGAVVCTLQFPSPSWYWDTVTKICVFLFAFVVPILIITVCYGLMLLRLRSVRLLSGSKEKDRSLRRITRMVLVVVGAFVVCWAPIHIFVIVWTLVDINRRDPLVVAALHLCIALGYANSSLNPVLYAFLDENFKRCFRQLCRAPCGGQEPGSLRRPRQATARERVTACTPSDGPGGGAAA", "assay": "Opioid receptor binding, DOR, rat brain membranes"}, "[1]": {"system": "mouse vas deferens preparation", "assay": "Mouse vas deferens bioassay", "conditions": "read-out: IC50, agonist potency in mouse vas deferens", "protocol": "The mouse vas deferens bioassay was performed as described in: M. Spetea et al., Eur. J. Pharmacol. 2004, 483, 301-308"}, "[2]": {"assay": "pH-metric determination of pKa, logP and logD in octanol/water (PCA200/Cheqsol)", "type": "physicochemical", "conditions": "octanol/water, 25° C.", "protocol": "All titrations were performed in 0.15M KCl solution under argon gas. The pKa was determined by the shape of the titration curve and partition coefficients were determined by the shift in titration curve of pKa in the presence of octanol. The analysis of pH-metric data was performed by RefinementPro software (version 2.0, Sirius, Sussex, UK)."}, "KOR": {"target": "T4, KOR (Cavia porcellus, UniProt P41144)", "T4 construct": "from tissue", "T4 sequence (P41144 whole entry)": "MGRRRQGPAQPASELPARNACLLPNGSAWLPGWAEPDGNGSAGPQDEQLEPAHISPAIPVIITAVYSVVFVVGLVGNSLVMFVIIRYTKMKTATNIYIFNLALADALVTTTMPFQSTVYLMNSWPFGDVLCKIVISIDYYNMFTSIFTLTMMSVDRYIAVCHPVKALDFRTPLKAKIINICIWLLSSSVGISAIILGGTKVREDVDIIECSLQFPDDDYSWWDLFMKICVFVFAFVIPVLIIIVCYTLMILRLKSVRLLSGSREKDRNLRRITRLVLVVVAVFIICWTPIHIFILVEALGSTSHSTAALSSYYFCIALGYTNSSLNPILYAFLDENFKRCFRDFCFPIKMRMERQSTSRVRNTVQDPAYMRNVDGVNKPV", "assay": "Opioid receptor binding, KOR, guinea pig brain membranes"}, "[3]": {"conditions": "Table 1-4, human MOP expressed in CHO cells, read-out: [35S]GTPγS binding, MOR EC50"}, "[4]": {"conditions": "Table 1-4, measured against DAMGO"}, "[5]": {"conditions": "Binding Ki (nM) MOR, in vitro binding assay, rat brain membranes"}, "[6]": {"conditions": "Binding Ki MOR, Table 1-4, rat brain membranes"}, "[7]": {"conditions": "Binding Ki (nM) DOR, in vitro binding assay, rat brain membranes"}, "[8]": {"conditions": "Binding Ki DOR, Table 1-4, rat brain membranes"}, "[9]": {"conditions": "Binding Ki (nM) KOR, in vitro binding assay, guinea pig brain membranes"}, "[10]": {"conditions": "Binding Ki KOR, Table 1-4, guinea pig brain membranes"}}, "note": "Read-outs that look alike come from different tables or passages of the source."}
{"smiles": "CO[C@@]12CC[C@H](N[C@@H](Cc3ccccc3)C(=O)O)[C@@H]3Oc4c(O)ccc5c4[C@@]31CCN(C)[C@@H]2C5", "note": "[Compound 3]", "values": [{"measurement": "EC50", "setting": "human MOR; [3]", "result": 0.03, "unit": "nM"}, {"measurement": "Emax", "setting": "human MOR; [4]", "result": 116, "unit": "%"}]}
{"smiles": "CO[C@@]12CCC(=O)[C@@H]3Oc4c(O)ccc5c4[C@@]31CCN(C)[C@@H]2C5", "note": "[Compound 14-OMO, 14-O-methyloxymorphone, reference compound]", "values": [{"measurement": "Ki", "setting": "MOR; Table 1-4, rat brain membranes, read-out: Binding Ki MOR", "result": 0.1, "unit": "nM"}, {"measurement": "Ki", "setting": "MOR; in vitro binding assay, rat brain membranes, read-out: Binding Ki (nM) MOR", "result": 0.1, "unit": "nM"}, {"measurement": "Ki", "setting": "DOR; Table 1-4, rat brain membranes, read-out: Binding Ki DOR", "result": 4.8, "unit": "nM"}, {"measurement": "Ki", "setting": "DOR; in vitro binding assay, rat brain membranes, read-out: Binding Ki (nM) DOR", "result": 4.8, "unit": "nM"}, {"measurement": "IC50", "setting": "[1]", "result": 7.76, "unit": "nM"}, {"measurement": "EC50", "setting": "human MOR; [3]", "result": 1.17, "unit": "nM"}, {"measurement": "[35S]GTPγS binding, MOR % stim.", "setting": "human MOR; [4]", "result": 127, "unit": "%"}]}
{"smiles": "CO[C@@]12CC[C@H](NCCCC(=O)O)[C@@H]3Oc4c(O)ccc5c4[C@@]31CCN(C)[C@@H]2C5", "note": "[Compound 15]", "values": [{"measurement": "EC50", "setting": "human MOR", "result": 1.9, "unit": "nM"}, {"measurement": "Emax", "setting": "human MOR", "result": 113, "unit": "%"}, {"measurement": "logP", "setting": "[2]", "result": -0.36}]}
{"smiles": "CO[C@@]12CC[C@H](N[C@@H](CCC(=O)O)C(=O)O)[C@@H]3Oc4c(O)ccc5c4[C@@]31CCN(C)[C@@H]2C5", "note": "[Compound 19]", "values": [{"measurement": "EC50", "setting": "human MOR; [3]", "result": 1.61, "unit": "nM"}]}
{"smiles": "CO[C@@]12CC[C@H](N[C@@H](CC(N)=O)C(=O)O)[C@@H]3Oc4c(O)ccc5c4[C@@]31CCN(C)[C@@H]2C5", "note": "[Compound 26]", "values": [{"measurement": "Ki", "setting": "MOR; [5]", "result": 1.17, "unit": "nM"}, {"measurement": "Ki", "setting": "MOR; [6]", "result": 1.17, "unit": "nM"}, {"measurement": "Ki", "setting": "DOR; [7]", "result": 3.37, "unit": "nM"}, {"measurement": "Ki", "setting": "DOR; [8]", "result": 3.37, "unit": "nM"}, {"measurement": "EC50", "setting": "human MOR; [3]", "result": 0.64, "unit": "nM"}, {"measurement": "Emax", "setting": "human MOR; [4]", "result": 109, "unit": "%"}, {"measurement": "Ki", "setting": "KOR; [9]", "result": 74, "unit": "nM"}, {"measurement": "Ki", "setting": "KOR; [10]", "result": 74, "unit": "nM"}]}
{"smiles": "CO[C@@]12CC[C@@H](N[C@H](C(=O)O)[C@@H](C)O)[C@@H]3Oc4c(O)ccc5c4[C@@]31CCN(C)[C@@H]2C5", "note": "[Compound 35]", "values": [{"measurement": "Ki", "setting": "MOR; [5]", "result": 0.79, "unit": "nM"}, {"measurement": "Ki", "setting": "MOR; [6]", "result": 0.79, "unit": "nM"}, {"measurement": "Ki", "setting": "DOR; [7]", "result": 5.16, "unit": "nM"}, {"measurement": "Ki", "setting": "DOR; [8]", "result": 5.16, "unit": "nM"}, {"measurement": "logP", "setting": "[2]", "result": -1.38}, {"measurement": "Ki", "setting": "KOR; [9]", "result": 58.6, "unit": "nM"}, {"measurement": "Ki", "setting": "KOR; [10]", "result": 58.6, "unit": "nM"}]}
{"smiles": "CO[C@@]12CC[C@H](N[C@@H](CO)C(=O)O)[C@@H]3Oc4c(O)ccc5c4[C@@]31CCN(C)[C@@H]2C5", "note": "[Compound 36]", "values": [{"measurement": "Ki", "setting": "MOR; [5]", "result": 2.21, "unit": "nM"}, {"measurement": "Ki", "setting": "MOR; [6]", "result": 2.21, "unit": "nM"}, {"measurement": "Ki", "setting": "DOR; [7]", "result": 5.32, "unit": "nM"}, {"measurement": "Ki", "setting": "DOR; [8]", "result": 5.32, "unit": "nM"}, {"measurement": "EC50", "setting": "human MOR", "result": 1.21, "unit": "nM"}, {"measurement": "Emax", "setting": "human MOR", "result": 96, "unit": "%"}, {"measurement": "Ki", "setting": "KOR; [9]", "result": 196, "unit": "nM"}, {"measurement": "Ki", "setting": "KOR; [10]", "result": 196, "unit": "nM"}]}
{"smiles": "CO[C@@]12CC[C@@H](N[C@@H](CO)C(=O)O)[C@@H]3Oc4c(O)ccc5c4[C@@]31CCN(C)[C@@H]2C5", "note": "[Compound 37]", "values": [{"measurement": "Ki", "setting": "MOR; [5]", "result": 2.14, "unit": "nM"}, {"measurement": "Ki", "setting": "MOR; [6]", "result": 2.14, "unit": "nM"}, {"measurement": "Ki", "setting": "DOR; [7]", "result": 5.29, "unit": "nM"}, {"measurement": "Ki", "setting": "DOR; [8]", "result": 5.29, "unit": "nM"}, {"measurement": "EC50", "setting": "human MOR; [3]", "result": 3.24, "unit": "nM"}, {"measurement": "Ki", "setting": "KOR; [9]", "result": 152, "unit": "nM"}, {"measurement": "Ki", "setting": "KOR; [10]", "result": 152, "unit": "nM"}]}
{"smiles": "CO[C@@]12CC[C@H](N[C@@H](CCCCN)C(=O)O)[C@@H]3Oc4c(O)ccc5c4[C@@]31CCN(C)[C@@H]2C5", "note": "[Compound 38]", "values": [{"measurement": "Ki", "setting": "MOR; [5]", "result": 0.19, "unit": "nM"}, {"measurement": "Ki", "setting": "MOR; [6]", "result": 0.19, "unit": "nM"}, {"measurement": "Ki", "setting": "DOR; [7]", "result": 1.27, "unit": "nM"}, {"measurement": "Ki", "setting": "DOR; [8]", "result": 1.27, "unit": "nM"}, {"measurement": "logP", "setting": "[2]", "result": -0.66}, {"measurement": "Ki", "setting": "KOR; [9]", "result": 12.6, "unit": "nM"}, {"measurement": "Ki", "setting": "KOR; [10]", "result": 12.6, "unit": "nM"}]}
{"smiles": "CO[C@@]12CC[C@@H](N[C@@H](CC(=O)O)C(=O)O)[C@@H]3Oc4c(O)ccc5c4[C@@]31CCN(C)[C@@H]2C5", "note": "[Compound 45]", "values": [{"measurement": "logP", "setting": "[2]", "result": -2.2}]}
{"smiles": "CO[C@@]12CC[C@@H](N[C@@H](Cc3c[nH]c4ccccc34)C(=O)O)[C@@H]3Oc4c(O)ccc5c4[C@@]31CCN(C)[C@@H]2C5", "note": "[Compound 46]", "values": [{"measurement": "Ki", "setting": "MOR; [5]", "result": 0.65, "unit": "nM"}, {"measurement": "Ki", "setting": "MOR; [6]", "result": 0.65, "unit": "nM"}, {"measurement": "Ki", "setting": "DOR; [7]", "result": 1.19, "unit": "nM"}, {"measurement": "Ki", "setting": "DOR; [8]", "result": 1.19, "unit": "nM"}, {"measurement": "EC50", "setting": "human MOR; [3]", "result": 0.61, "unit": "nM"}, {"measurement": "Emax", "setting": "human MOR; [4]", "result": 112, "unit": "%"}, {"measurement": "Ki", "setting": "KOR; [9]", "result": 8.66, "unit": "nM"}, {"measurement": "Ki", "setting": "KOR; [10]", "result": 8.66, "unit": "nM"}]}
